Laboratory results from patent US7312358B2, “Pharmaceutically active sulfanilide derivatives” (Laboratoires Serono SA, priority 2000, dated 2007).

How the values were obtained:
ratOT-R = target: T1, ratOT-R (Rattus norvegicus, UniProt P70536); assay: Inhibition of IP3 (inositol tri-phosphate)-synthesis in HEK/EBNA-OTR cells; format: cell-based; conditions: [3H]-inositol, oxytocin 10 nM
T1 construct: expressed in transfected cells; host or cells: HEK/EBNA cells
T1 sequence (P70536 1-388): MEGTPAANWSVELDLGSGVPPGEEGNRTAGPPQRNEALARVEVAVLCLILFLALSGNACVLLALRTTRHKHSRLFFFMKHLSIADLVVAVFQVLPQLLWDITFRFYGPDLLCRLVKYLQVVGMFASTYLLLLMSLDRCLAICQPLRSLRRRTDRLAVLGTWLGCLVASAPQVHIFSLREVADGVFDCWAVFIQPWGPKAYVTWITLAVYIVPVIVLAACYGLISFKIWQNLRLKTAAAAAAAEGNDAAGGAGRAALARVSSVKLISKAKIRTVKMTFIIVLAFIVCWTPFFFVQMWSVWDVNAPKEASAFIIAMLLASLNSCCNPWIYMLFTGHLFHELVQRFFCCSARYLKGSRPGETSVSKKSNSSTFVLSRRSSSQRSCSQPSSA
Procedure: e) Functional Assay No. 2: Inhibition of IP3 (Inositol Tri-Phosphate)-Synthesis in HEK/EBNA-OTR Cells
This assay intends to show the inhibition of the OT/OT-R mediated IP3 synthesis—being necessary to cause uterine contractions—by using test compounds of formula (I).
Stimulation of the cells: IIEK/EBNA OTR(rat or human) cells were plated out into costar 12-well plates, and equilibrated for 15-24 h with [^3H]-inositol radiolabel in medium without inositol supplement, with 1% FCS (0.5 ml/well). 4 μCi/ml were used. After this, the medium containing the label was aspirated. Then was added DMEM (without FCS, inositol), 20 mM Hepes (4-(2-hydroxyethyl)-1-piperazine-ethane-sulphonic acid), 1 mg/ml BSA containing 10 mM LiCl (freshly prepared), for […] at 37° C. The agonist (i.e. oxytocin used at a concentration of 10 nM) and the antagonists (i.e. the tests compounds of formula (1) used in a concentration of 10 μM, 1 μM, 300 nM, 100 nM, 10 nM, 1 nM, 100 pM, 10 pM, 3 pM) were added for the time required (15-45 min), followed by aspiration of the medium. Due to the […] of the OT receptor, the radiolabeled inositol is phosphorylated to yield IP3, the amount of the radiolabeled IP3 may be determined through the ensuing work-up. The reaction was stopped with 1 ml STOP-solution (i.e. 0.4 M perchloric acid), and let sit for 5-10 min at Room Temperature. Then, 0.8 ml were transferred into tubes containing 0.4 ml of neutralizing solution (0.72 M KOH/0.6M KHCO3), and the tubes vortexed and kept in the cold at least for 2 h.
Separation of IP's: The samples were spun in a table top centrifuge at 3000-4000 rpm for 15 min. 1 ml of the supernatant was transferred to new tubes containing 2.5 ml H2O. Packed resin (0.8 ml) was equilibrated with 20 ml H2O, and the whole samples poured onto the chromatography columns, thus separating the mixture. To discard free inositol, two washes with 10 ml H2O were carried out.
Elution of total IP's: The elution was achieved using 3 ml 1M ammonium formate/0.1M formic acid. The eluant was collected in scintillation counting tubes, followed by addition of 7 ml of scintillation liquid. The amount of IP3 is determined by a scintillating counter.
The activities of the sulfanilide derivatives claimed in the formula I were assessed using the above described in vitro biological assay. The values refer to the capacity of the example compounds according to formula I to effectively antagonize oxytocin-induced IP3-synthesis mediated by the oxytocin receptor.

hOT-R = target: T2, hOT-R (Homo sapiens, UniProt P30559); assay: Inhibition of oxytocin mediated Ca2+-mobilization by FLIPR (HEK cells); format: cell-based; conditions: fluo-4, OT 40 nM
T2 construct: expressed in transfected cells; host or cells: HEK (Human Embryonic Kidney) cells
T2 sequence (P30559 1-389): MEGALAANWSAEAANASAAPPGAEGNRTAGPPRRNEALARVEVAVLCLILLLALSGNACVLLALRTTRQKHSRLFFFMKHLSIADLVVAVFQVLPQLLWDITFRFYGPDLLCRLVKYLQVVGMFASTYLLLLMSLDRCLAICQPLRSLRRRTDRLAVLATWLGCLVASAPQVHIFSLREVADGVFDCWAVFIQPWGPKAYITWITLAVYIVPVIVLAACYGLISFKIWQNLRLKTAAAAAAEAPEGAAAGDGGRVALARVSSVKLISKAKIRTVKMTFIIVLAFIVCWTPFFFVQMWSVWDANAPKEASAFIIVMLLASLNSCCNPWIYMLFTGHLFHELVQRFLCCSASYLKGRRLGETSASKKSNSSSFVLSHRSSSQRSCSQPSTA
How it was run: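 HEK cells loaded with fluo-4 for 1.5–2 h; antagonist added at 10 pM–30 μM in HEPES-buffered saline, pH 7.4, then stimulated with 40 nM oxytocin. Intracellular Ca2+ mobilization read as fluorescence on FLIPR.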

For CCOc1ccc(S(=O)(=O)N(CC(=O)N/N=C2/C(=O)Nc3ccccc32)c2ccc(C)cc2)cc1 [Example 5, 4-ethoxy-N-(4-methylphenyl)-N-{2-oxo-2-[2-(2-oxo-1,2-dihydro-3H-indol-3-ylidene)hydrazino]ethyl}benzenesulfonamide], the IC50 (ratOT-R) was 13 nM and the IC50 (hOT-R) was 55 nM.
